Measurements from PMC7767178 (International Journal of Molecular Sciences, 2020).
In brackets after ≈: the same amount, converted by molar mass. Several values for one entry are separate records, joined by “and”; a condition that tells them apart may be missing. Equal values may be shown once. Read-outs that look alike come from different tables or passages of the source.

How the values were obtained:
A. veronii ACCC61732 [1] = test: Resistance development, 30 serial passages; format: cell-based; conditions: A. veronii ACCC61732, 30 passages (30 days)
Protocol: The development of bacterial resistance of peptides was performed by the MIC assays. […] GEN, CIP, and PMB were used as controls. […] The MIC values were measured as described above. The serial passaging was repeated for 30 days.

A. veronii ACCC61732 [2] = test: Time-killing curves; format: cell-based; conditions: 2× MIC; 1 × 10^5 CFU/mL, colony counting, 0–24 h
Protocol: Time-killing curves were performed as previously described. […] The sample of 100 μL was taken from each flask at 0, 0.5, 1, 2, 4, 6, 8, 10, 20, and 24 h, respectively, and serially diluted for colony counting. PBS and CIP were used as the negative and positive control, respectively.

A. veronii ACCC61732 [3] = test: Post-antibiotic effect (PAE); format: cell-based; conditions: for PAE: 2 h exposure, 1000-fold dilution, 37 °C, triplicate
Protocol: The samples were taken from flasks for counting each hour until bacterial cultures became turbid. The untreated bacteria severed as controls. The PAE was calculated using the following equation: PAE = T − C, where T is the time (h) required for the CFU in the test culture to increase by 10-fold from the count immediately after the drug removal and C is the corresponding time (h) for the control. The experiment was performed in triplicate.

A. veronii ACCC61732 [4] = test: Outer membrane permeabilization, NPN assay; format: cell-based; conditions: NPN fluorescence, 1×–4× MIC
Protocol: The outer membrane permeabilization abilities of peptides were determined using the fluorescent NPN assay. Mid-log phase A. veronii ACCC61732 was collected by centrifugation, washed twice, and then suspended in N-2-hydroxyethylpiperazine-n-2-ethane sulfonic acid (HEPES) buffer (pH 7.4) to an OD600nm = 0.4. […] Fluorescence intensity was recorded until no further increase with a microplate reader (excitation/emission, 328/438 nm).

S. enteritidis CVCC3377 = test: microbe, parasite or virus in culture; format: cell-based
Text: (§1) All experiments were repeated three times.

S. pullorum CVCC533 = test: microbe, parasite or virus in culture; format: cell-based
Text: as §1

Escherichia coli CVCC195 = test: microbe, parasite or virus in culture; format: cell-based
Text: as §1

[5] = system: Candida albicans CMCC98001; test: microbe, parasite or virus in culture; format: cell-based
Text: as §1

A. veronii X-1-06909 = test: microbe, parasite or virus in culture; format: cell-based
Text: as §1

E. coli CVCC1515 = test: microbe, parasite or virus in culture; format: cell-based
Text: as §1

S. pullorum CVCC1789 = test: microbe, parasite or virus in culture; format: cell-based
Text: as §1

S. pullorum CVCC1809 = test: microbe, parasite or virus in culture; format: cell-based
Text: as §1

[6] = system: Staphylococcus aureus ATCC43300; test: microbe, parasite or virus in culture; format: cell-based
Text: as §1

E. coli CVCC25922 = test: microbe, parasite or virus in culture; format: cell-based
Text: as §1

[7] = system: A. veronii ACCC61732 in biofilm; format: cell-based; conditions: 2 h
Protocol: The mid-log phase A. veronii ACCC61732 cells (1 × 10^8 CFU/mL) were inoculated into in the 96-well plates and cultured for 24 h at 37 °C. The plates were washed twice with PBS. […] PBS was used as the negative control. The plates were treated with ultrasound for 5 min and the viable bacteria were counted on the TSA plates.

A. veronii ACCC61732 [8] = test: Inner membrane permeability, PI staining, flow cytometry; format: cell-based
Protocol: To analyze effects of peptides on the inner membrane, A. veronii ACCC61732 cells were cultured to mid-log phase at 37 °C in MHB medium, washed thrice with PBS, and resuspended in the PBS buffer to 1 × 10^8 CFU/mL. […] After fixation with PI, the samples were detected by a fluorescent inverted microscope and FACS Calibur Flow Cytometer (BD, San Jose, CA, USA), respectively. Cell Quest Pro software (BD, San Jose, CA, USA) was used for the data analysis.

E. coli CVCCO157 = test: MIC, microtiter broth dilution; format: cell-based; conditions: 37 °C, 16–18 h, three experiments
Text: as §1

S. hyicus 437-2 = format: cell-based
IL-10 = test: Serum cytokine, ELISA, peritonitis model; format: in vivo; conditions: 1 μmol/kg, 24 h after treatment, range over mice
Protocol: Sera and organs (livers, kidneys, spleens, and lungs) were collected from the mice at 24 h post-treatment. The organs were homogenized in sterile PBS to evaluate bacterial translocation by colony counting. The levels of cytokines (TNF-α, IL-1β, IL-6, and IL-10) in sera were detected using the ELISA kits.

## CC(C)[C@@H]1NC(=O)CNC(=O)[C@H](CC(N)=O)NC(=O)[C@H](CCCNC(=N)N)NC(=O)[C@H](Cc2ccc(O)cc2)NC(=O)[C@H](C(C)C)NC(=O)[C@@H](NC(=O)[C@@H](NC(=O)[C@H](CC(N)=O)NC(=O)[C@H](Cc2c[nH]c3ccccc23)NC(=O)[C@H](C)NC(=O)[C@H](Cc2ccccc2)NC(=O)[C@H](CCCN)N=C(N(C)C)N(C)C)C(C)C)CSSC[C@@H](C(=O)N[C@@H](Cc2c[nH]cn2)C(=O)N[C@@H](CCCNC(=N)N)C(=O)N[C@@H](CCCNC(=N)N)C(=O)N[C@@H](C)C(=O)N[C@@H](CC(N)=O)C(N)=O)NC(=O)[C@H](C(C)C)NC(=O)[C@H](CCCNC(=N)N)NC1=O (stereo in doubt) [Guo-N6NH2]
A. veronii ACCC61732 [1]
  increase of MIC after 30 serial passages: three-fold
A. veronii ACCC61732 [2]
  time to completely kill A. veronii ACCC61732: 6 h
A. veronii ACCC61732 [3]; 1× MIC
  PAE: 0.62 ± 0.01 h
A. veronii ACCC61732 [3]; 1× to 4× MIC
  PAEs, range over 1×–4× MIC: 0.62 to 2.07 h
A. veronii ACCC61732 [3]; 2× MIC
  PAE: 1.32 ± 0.08 h
A. veronii ACCC61732 [3]; 4× MIC
  PAE: 2.07 ± 0.08 h
A. veronii ACCC61732 [4]
  ability to penetrate the outer membrane: higher ability to penetrate the outer membrane than N6NH2
S. enteritidis CVCC3377; CVCC3377, read-out: MIC
  MIC: 0.76 µM
S. enteritidis CVCC3377; S. enteritidis CVCC3377, broth dilution, 37 °C, 16–18 h, three experiments
  MIC: 2 µg/mL
S. pullorum CVCC533; CVCC533, read-out: MIC
  MIC: 3.04 µM
S. pullorum CVCC533; S. pullorum CVCC533, broth dilution, 37 °C, 16–18 h, three experiments
  MIC: 8 µg/mL
Escherichia coli CVCC195; Escherichia coli CVCC195, broth dilution, 37 °C, 16–18 h, three experiments
  MIC: 4 µg/mL
[5]; CMCC98001, read-out: MIC
  MIC: >48.6 µM
A. veronii X-1-06909; A. veronii X-1-06909, broth dilution, 37 °C, 16–18 h, three experiments
  MIC: 16 µg/mL
A. veronii X-1-06909; read-out: MIC
  MIC: 6.08 µM
E. coli CVCC1515; CVCC1515, read-out: MIC
  MIC: 0.76 µM
E. coli CVCC1515; E. coli CVCC1515, broth dilution, 37 °C, 16–18 h, three experiments
  MIC: 2 µg/mL
S. pullorum CVCC1789; CVCC1789, read-out: MIC
  MIC: 3.04 µM
S. pullorum CVCC1789; S. pullorum CVCC1789, broth dilution, 37 °C, 16–18 h, three experiments
  MIC: 8 µg/mL
S. pullorum CVCC1809; S. pullorum CVCC1809, broth dilution, 37 °C, 16–18 h, three experiments
  MIC: 4 µg/mL
[6]; ATCC43300, read-out: MIC
  MIC: 6.08 µM
[6]; Staphylococcus aureus ATCC43300, broth dilution, 37 °C, 16–18 h, three experiments
  MIC: 16 µg/mL
E. coli CVCC25922; E. coli CVCC25922, broth dilution, 37 °C, 16–18 h, three experiments
  MIC: 4 µg/mL
[7]; 8
  bacteria in biofilm killed: 46.26%
[7]; 16
  bacteria in biofilm killed: 54.31%
A. veronii ACCC61732 [8]; 1× MIC, 0.5 h
  Permeability (PI-positive cells): 0.63%
A. veronii ACCC61732 [8]; 1× MIC, 2 h
  Permeability (PI-positive cells): 4.96%
A. veronii ACCC61732 [8]; 2× MIC, 0.5 h
  Permeability (PI-positive cells): 0.55%
A. veronii ACCC61732 [8]; 2× MIC, 2 h
  Permeability (PI-positive cells): 1.91%
A. veronii ACCC61732 [8]; 4× MIC, 0.5 h
  Permeability (PI-positive cells): 0%
A. veronii ACCC61732 [8]; 4× MIC, 2 h
  Permeability (PI-positive cells): 2.16%
E. coli CVCCO157
  MIC: 4 µg/mL (≈ 1.52 µM)
S. hyicus 437-2
  MIC: 12.16 µM
S. hyicus 437-2; S. hyicus 437-2 (clinical isolate, pig farm), broth dilution, 37 °C, 16–18 h, three experiments
  MIC: 32 µg/mL

## O=C(O)c1cn(C2CC2)c2cc(N3CCNCC3)c(F)cc2c1=O [CIP, ciprofloxacin, reference compound]
A. veronii ACCC61732 [1]
  increase of MIC after 30 serial passages: 15 fold
A. veronii ACCC61732 [2]
  time to completely kill A. veronii ACCC61732: started to regrow after 2 h
A. veronii ACCC61732 [3]; 1× MIC
  PAE: 0.6 ± 0.01 h
A. veronii ACCC61732 [3]; 2× MIC
  PAE: 0.63 ± 0.1 h
A. veronii ACCC61732 [3]; 4× MIC
  PAE: 0.67 h and 0.67 ± 0.02 h
S. enteritidis CVCC3377; Salmonella enterica, ENTERITIDIS
  MIC: < 0.0625 µg/mL
S. enteritidis CVCC3377; Salmonella enterica, S. enteritidis CVCC3377, broth dilution, 37 °C, 16–18 h, three experiments, read-out: MIC
  MIC: < 0.19 µM
S. pullorum CVCC533; Salmonella enterica, PULLORUM
  MIC: < 0.0625 µg/mL
S. pullorum CVCC533; Salmonella enterica, S. pullorum CVCC533, broth dilution, 37 °C, 16–18 h, three experiments, read-out: MIC
  MIC: < 0.19 µM
Escherichia coli CVCC195; Escherichia coli CVCC195, broth dilution, 37 °C, 16–18 h, three experiments, read-out: MIC
  MIC: < 0.19 µM
Escherichia coli CVCC195; Escherichia coli, CVCC195
  MIC: < 0.0625 µg/mL
[5]; Candida albicans CMCC98001, broth dilution, 37 °C, 16–18 h, three experiments, read-out: MIC
  MIC: > 386 µM
[5]; Candida albicans, CMCC98001
  MIC: > 128 µg/mL
A. veronii X-1-06909; Aeromonas veronii, X106909, A. veronii X-1-06909, broth dilution, 37 °C, 16–18 h, three experiments, read-out: MIC
  MIC: 0.25 µg/mL and 0.75 µM
E. coli CVCC1515; Escherichia coli, CVCC1515
  MIC: < 0.0625 µg/mL
E. coli CVCC1515; Escherichia coli, E. coli CVCC1515, broth dilution, 37 °C, 16–18 h, three experiments, read-out: MIC
  MIC: < 0.19 µM
S. pullorum CVCC1789; Salmonella enterica, PULLORUM
  MIC: < 0.0625 µg/mL
S. pullorum CVCC1789; Salmonella enterica, S. pullorum CVCC1789, broth dilution, 37 °C, 16–18 h, three experiments, read-out: MIC
  MIC: < 0.19 µM
S. pullorum CVCC1809; Salmonella enterica, PULLORUM
  MIC: < 0.0625 µg/mL
S. pullorum CVCC1809; Salmonella enterica, S. pullorum CVCC1809, broth dilution, 37 °C, 16–18 h, three experiments, read-out: MIC
  MIC: < 0.19 µM
[6]; Staphylococcus aureus ATCC43300, broth dilution, 37 °C, 16–18 h, three experiments, read-out: MIC
  MIC: 0.25 µg/mL and 0.75 µM
E. coli CVCC25922; Escherichia coli, CVCC25922
  MIC: < 0.0625 µg/mL
E. coli CVCC25922; Escherichia coli, E. coli CVCC25922, broth dilution, 37 °C, 16–18 h, three experiments, read-out: MIC
  MIC: < 0.19 µM
[7]; 8× MIC, 37 °C, colony counting
  bacteria in biofilm killed: 47.46%
[7]; 16× MIC, 37 °C, colony counting
  bacteria in biofilm killed: 52.32%
E. coli CVCCO157; Escherichia coli, read-out: MIC
  MIC: < 0.0625 µg/mL and < 0.19 µM
IL-10
  serum level of IL-10: 10.1 to 16.41 pg/mL
